Measured values from patent US12396995B2, “Substituted 4-aminoisoindoline-1,3-dione compounds and second active agents for combined use” (Celgene Corporation, priority 2019, dated 2025).

System: panel of DLBCL cell lines
Assay: CellTiter-Glo proliferation, Compound 1 with BET inhibitor Compound B
Type: cell-based
Details: Combinations of Compound B and Compound 1; 40 DLBCL cell lines; 5 days
Protocol: A panel of DLBCL cell lines in the following table were treated with single-agent Compound 1, single agent Compound B (a BET inhibitor), along with the combinations of Compound 1 and Compound B, at a concentration range to investigate the antiproliferative activities.
Experimental procedures: CellTiter-Glo (CTG), a luminescent dye that measures adenosine-5′-triphosphate (ATP), was used to quantify the cell proliferation across a panel of 40 unique DLBCL cell lines. Single agents and combinations were pre-spotted into 384-well plates (diluted in final dimethyl sulfoxide [DMSO] concentration of 0.1% for a maximal volume of 50 μL). […]
For each DLBCL cell line, 50 μL of cell suspension at their respective seeding densities of 0.025 to 0.2×10^6 cells per mL were added to 384-well plates containing the compounds. The effect of the single agents and combinations on the proliferation/viability of cells was assessed after 5 days of incubation. Twenty-five microliters of CTG per well was then dispensed to the cell suspension, and ATP released by viable cells was measured after a 30-minute incubation as relative luminescence units (RLU) using an EnVision plate reader (PerkinElmer, Covina, CA). […]

## O=C1CC[C@H](N2C(=O)c3cccc(NCc4ccc(CN5CC(N6CCOCC6)C5)cc4F)c3C2=O)C(=O)N1 [Compound 1, (S)-2-(2,6-dioxopiperidin-3-yl)-4-((2-fluoro-4-((3-morpholinoazetidin-1-yl)methyl)benzyl)amino)isoindoline-1,3-dione]
  combination effect on proliferation (Bliss independence and HSA models): synergy and additivity in the majority of DLBCL cell lines
